{"source": "patent US7132111B2", "about": "“Odorless formulation for treating mucosal discontinuities” (Epien Medical, Inc., priority 2003, dated 2006)", "origin": "cited, not measured here", "tested_on": "aphthous ulcers", "details": "applied locally, three times a day", "data": [{"smiles": "CN(C)[C@@H]1C(O)=C(C(N)=O)C(=O)[C@@]2(O)C(O)=C3C(=O)c4c(O)ccc(Cl)c4[C@@](C)(O)[C@H]3C[C@@H]12", "note": "[Aureomycin]", "values": [{"measurement": "duration of analgesic effect", "result": "one half to two"}, {"measurement": "duration of the ulcers with treatment", "setting": "reduced from about 10 days", "result": "~5", "unit": "days"}]}]}
